Experimental findings from patent US20030134848A1, “Substituted 1-aza-2-imino-heterocycles and their use as nicotinic acetylcholin receptors activators” (priority 2000, published 2003) are described below.

The target of one test is T1, human α4β2 subtype of nicotinic acetylcholine receptors (Homo sapiens, UniProt P17787+P43681).
T1 construct: expressed in transfected cells; host or cells: Xenopus laevis oocytes injected with hnACh-R α4 and β2 cRNA (pSP64 polyA vector)
T1 sequence (P43681 29-627 limits assumed): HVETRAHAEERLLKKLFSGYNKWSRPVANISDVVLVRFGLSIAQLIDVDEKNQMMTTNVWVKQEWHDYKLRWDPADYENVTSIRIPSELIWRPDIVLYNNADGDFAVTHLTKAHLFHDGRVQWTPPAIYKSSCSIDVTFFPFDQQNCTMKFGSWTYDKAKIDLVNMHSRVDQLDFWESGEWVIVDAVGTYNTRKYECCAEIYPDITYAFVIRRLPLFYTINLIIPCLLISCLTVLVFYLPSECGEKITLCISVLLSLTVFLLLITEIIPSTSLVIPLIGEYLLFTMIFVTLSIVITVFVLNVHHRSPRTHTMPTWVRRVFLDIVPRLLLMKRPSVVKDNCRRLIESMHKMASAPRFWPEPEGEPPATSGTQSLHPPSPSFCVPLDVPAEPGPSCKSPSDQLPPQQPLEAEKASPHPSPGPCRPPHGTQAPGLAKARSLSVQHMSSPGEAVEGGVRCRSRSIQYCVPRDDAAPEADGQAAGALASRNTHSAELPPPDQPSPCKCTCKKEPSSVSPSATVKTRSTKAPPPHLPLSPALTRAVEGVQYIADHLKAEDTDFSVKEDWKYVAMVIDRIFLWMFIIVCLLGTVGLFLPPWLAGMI
T1 sequence (P17787 26-502): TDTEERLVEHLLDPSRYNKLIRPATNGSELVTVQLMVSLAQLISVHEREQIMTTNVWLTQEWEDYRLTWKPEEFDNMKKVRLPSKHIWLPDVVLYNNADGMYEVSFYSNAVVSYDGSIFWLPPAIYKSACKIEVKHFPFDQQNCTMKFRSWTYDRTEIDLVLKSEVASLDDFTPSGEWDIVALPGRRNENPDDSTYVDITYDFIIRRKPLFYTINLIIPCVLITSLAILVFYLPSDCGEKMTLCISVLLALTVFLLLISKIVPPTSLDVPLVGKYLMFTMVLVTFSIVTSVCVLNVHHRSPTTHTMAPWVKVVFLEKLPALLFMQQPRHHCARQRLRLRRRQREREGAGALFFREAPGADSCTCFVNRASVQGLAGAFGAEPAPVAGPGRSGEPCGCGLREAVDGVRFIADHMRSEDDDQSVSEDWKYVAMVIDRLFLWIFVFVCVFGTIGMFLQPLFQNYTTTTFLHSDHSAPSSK
The experiment in a line: Agonist activity at human α4β2 nicotinic acetylcholine receptors expressed in Xenopus oocytes (membrane potential holding method). In kind it is cell-based. The conditions noted are these: 100 μM test compound vs response at 10 μM acetylcholine (100%). The protocol:
The agonist effect in human α4β2 subtype of nicotinic acetylcholine receptors are examined by using human nicotinic acetylcholine receptors prepared in oocytes of Xenopus laevis, which is injected with cRNA from the corresponding cloning cDNA of human α4 and β2 subunits of nicotinic acetylcholine receptors, and to measure the expression of the electric response by adding the test compounds to perfusion solution by means of membrane potential holding method.
The agonist activities of the compounds of the present invention at human 4β2 subtype of nicotinic acetylcholine receptors was evaluated by the following method, which was modified method described by Papke R. L., Thinschmidt J. S., Moulton B. A., Meyer E. M. & Poirier A., Br. J. Pharmacol., 120, 429-438 (1997).
(1) Preparation of cRNA of Human α4β2 Subtype of Nicotinic Acetylcholine Receptors
The cloning of human nicotinic acetylcholine receptor (hnACh-R) α4 cDNA and hnAC-R β2 cDNA were performed, in accordance with the conventional manners, by synthesizing the each DNA primers corresponding to the sequences of hnACh-R α4 cDNA and hnACh-R β2 cDNA [Monteggia L. M. et al., Gene, 155, 189-193 (1995); and Anand R., & Lindstrom J., Nucl. Acids Res., 18, 4272 (1990)], and obtained hnACh-R α4 cDNA and hnACh-R β2 cDNA by polymerase chain reaction (PCR), respectively. The obtained hnACh-R α4 cDNA and hnACh-R β2 cDNA were inserted to the cRNA expression vector (pSP64 polyA) having SP6 RNA promoter to construct hnACh-R α4/pSP64 polyA and hnACh-R β2/pSP64 polyA, respectively. After cutting from expression vector by restriction enzyme (EcoRI), transcription was performed by affecting SP6 RNA polymerase in the presence of cap analogues to obtain hnACh-R α4 cRNA and hnACh-R β2 cRNA, respectively.
(2) Expression of Human α4β2 Subtype Nicotinic Acetylcholine Receptors in Xenopus oocytes
Oocytes were purchased from Kitanihonseibutsukyohzai Co., Ltd., which were already enucleated from Xenopus laevis, and used in this experiment.
The oocytes were treated with collagenase (Sigma type I; 1 mg/ml) in calcium-free modified Birth's solution (88 mM of NaCl, 1 mM of KCl, 2.4 mM of NaHCO3, 0.82 mM of MgSO4, 15 mM of HEPES, pH 7.6) under gently stirring at room temperature for 90 minutes, and washed out the enzyme from the tissue. Then, oocytes were separated from ovarian follicle by tweezers, and isolated oocytes were placed in antibiotics containing modified Birth's solution (88 mM of NaCl, 1 mM of KCl, 2.4 mM of NaHCO3, 0.82 mM of MgSO4, 15 mM of HEPES, pH 7.6, and 0.1 v/v % of mixture solution containing of penicillin and streptomycin for incubation; Sigma Co.). […] In oocytes, heterogeneous quintuple [(α4)2(β2)3] was composed by translation of injected cRNAs, and ion channel receptors were constructed on cell membrane.
(3) Agonist Activities at Human α4β2 Subtype of Nicotinic Acetylcholine Receptors
The recordings of responses at human α4β2 subtype of nicotinic acetylcholine receptors by means of membrane potential holding method were performed as follow. […] The membrane electric potentials were held at −50 mV by mean of the two electric membranes potential holding method (CEZ-1250; Nihon Kohden Co.). Test compounds were added to the perfusion solution, and recorded the peak strength of induced inward current. In order to normalize the responses of test compounds, the responses with acetylcholine (Ach) were recorded before and after application of the test compounds. Generally in the oocytes just after isolated, the response of intrinsic muscarinic acetylcholine receptors, which is inward electric current caused by activation of calcium dependence chloride ion channels with increase of the intracellular calcium concentration by stimulation of receptors, is observed.
Consider `N=C1NCCCN1CCc1ccc(Cl)nc1` [Compound 12, 1-[2-(6-chloro-3-pyridyl)ethyl]-2-imino-1,2,3,4,5,6-hexahydro-pyrimidine], for which the “control % by response at 100 μM of the test compounds” value is “(8%)”.

Take `Nc1nccn1CCc1cnccn1` [Compound 31, 2-amino-1-[2-(2-pyrazinyl)ethyl]imidazole]: the “control % by response at 100 μM of the test compounds” value is listed as “(15%)”.

Staying with this test, now noted: Xenopus oocytes, held at −50 mV, peak inward current; read-out: Agonist activity (ED50).
Consider `Cc1ccc(CCn2ccnc2N)cn1` [Compound 11, 2-amino-1-[2-(6-methyl-3-pyridyl)ethyl]imidazole], for which the EC50 is 7.5 µM.

For `Nc1nccn1CCc1cnc(Cl)c(Cl)c1` [Compound 13, 2-amino-1-[2-(5,6-dichloro-3-pyridyl)ethyl]-imidazole], the EC50 amounted to 2.4 µM.

As for `Nc1nccn1CCc1cccnc1` [Compound 14, 2-amino-1-[2-(3-pyridyl)ethyl]imidazole], the EC50 stood at 2 µM.

With `Nc1nccn1CCc1cnc(Cl)s1` [Compound 23, 2-amino-1-[2-(2-chloro-5-thiazolyl)ethyl]imidazole], the EC50 is 13 µM.

In the case of `Nc1nccn1CCc1cncc(Br)c1` [Compound 25, 2-amino-1-[2-(5-bromo-3-pyridyl)ethyl]imidazole], the EC50 stood at 3 µM.

On to `Cc1cncc(CCn2ccnc2N)c1` [Compound 27, 2-amino-1-[2-(5-methyl-3-pyridyl)ethyl]imidazole], for which the EC50 was 6.2 µM.

Regarding `Nc1nccn1CCc1cncnc1` [Compound 29, 2-amino-1-[2-(5-pyrimidyl)ethyl]imidazole], the EC50 worked out at 3.7 µM.

Consider `Nc1nccn1CCc1cccnn1` [Compound 30, 2-amino-1-[2-(3-pyridazinyl)ethyl]imidazole], for which the EC50 stood at 46 µM.

With `Nc1nccn1CCc1ccnnc1` [Compound 34, 2-amino-1-[2-(4-pyridazinyl)ethyl]imidazole], the EC50 stood at 170 µM.
